Data: US4018765A, “Process for the preparation of certain hydroperoxy derivatives” (Hoffmann-La Roche Inc., priority 1975, dated 1977)
Like-named read-outs stand apart in the source and are kept apart here.

Columns and labels:
Format in all cases: in vivo
mice [1] = test: psychostimulant activity (pharmacological tests in animals such as mice); details: similarly tested
Experimental: (§1) As has been indicated hereinabove the novel end products of this invention, i.e., the compounds of formula I and their pharmaceutically acceptable acid addition salts and the compounds of formula II-d and their pharmaceutically acceptable acid addition salts, are useful as psychostimulants. When administered, for example, orally, or animals such as mice they produce a direct-acting stimulant effect of long duration in single doses in amounts ranging from 0.03 mg/kg to 50 mg/kg. […] Exp. Path. and Pharm., Vol. 140, page 237). The compounds of this invention have psychostimulant effects qualitatively similar in many respect to those of imipramine and amphetamine which are wellknown for their therapeutic uses and properties.

mice [2] = test: writhing test in mice (analgesic); details: p.o.
Experimental: (§2) In addition to their use as psychostimulants, the compounds of formulas I and II-d are also useful as analgesic agents. […] For example, 2-(2-benzoylphenyl)-2-imadazoline in dogs at 4 mg/kg i.v. produced an increase in blood pressure of 10 mm. Hg after 2 minutes followed by gradual increase to 25 mm. Hg.

unanesthetized cat = unanesthetized cat test for muscle relaxants; details: p.o.
Experimental: as §2

[3] = system: ptosis induced by tetrabenzene in mice; test: prevention of ptosis induced by tetrabenzene (tetrabenazene) in mice; details: Mus musculus, po, read-out: dose that prevented the ptosis induced by tetrabenzene
Experimental: as §1

[4] = system: effects of β-(3,4-dihydroxyphenyl)-α-alanine (DOPA) in mice; test: DOPA potentiation test in mice; details: Mus musculus, ip
Experimental: as §1

animals = test: analgesic properties (pharmacological tests in animals); details: based on the pharmacological tests in animals
Experimental: as §2

dogs = test: blood pressure in dogs; details: 4 mg/kg i.v.
Experimental: as §2

[5] = system: hypothermia induced by reserpine in mice; test: reversal of hypothermia induced by reserpine in mice; details: Mus musculus, po, reserpine 10 mg/kg s.c., read-out: dose that reversed the hypothermia and hypometabolic effects induced by reserpine
Experimental: as §1

[6] = mice, i.p., read-out: dose that potentiated the effects of DOPA
[7] = comparison drugs, read-out: dose showing psychostimulant activity in the DOPA potentiation test

COc1ccc(C2(O)c3ccccc3C3=NCCN32)cc1 (centres unmarked) [2,3-dihydro-5-hydroxy-5-(4-methoxyphenyl)-5H-imidazo[2,1-a]-isoindole]
psychostimulant test result relative to 2-(2-benzoylphenyl)-2-imidazoline (mice [1]): qualitatively similar to 2-(2-benzoylphenyl)-2-imidazoline

OC1(c2ccc(Cl)cc2)c2ccccc2C2=NCCN21 (centres unmarked) [5-(4-chlorophenyl)-2,3-dihydro-5-hydroxy-5H-imidazo[2,1-a]-isoindole]
psychostimulant test result relative to 2-(2-benzoylphenyl)-2-imidazoline (mice [1]): qualitatively similar to 2-(2-benzoylphenyl)-2-imidazoline

O=C(c1ccccc1)c1ccccc1C1=NCCN1 [Example 10, 2-(2-benzoylphenyl)-2-imidazoline]
dose with marked activity in the writhing test (mice [2]): 30.8 mg/kg | dose active in the unanesthetized cat test for muscle relaxants (unanesthetized cat): 2.5 mg/kg | minimal effective dose [3]: 0.06 mg/kg | minimal effective dose [4, 6]: 6.25 mg/kg | analgesic properties relative to phenylbutazone (animals): can be likened to the analgesic properties of phenylbutazone | increase in blood pressure after 2 minutes (dogs; after 2 minutes): 10 mm. Hg | increase in blood pressure, following gradual increase (dogs; gradual increase after the first 2 minutes): 25 mm. Hg

COC1(c2ccccc2)c2ccccc2C2=NCCN21 (centres unmarked) [Example 19, 2,3-dihydro-5-methoxy-5-phenyl-5H-imidazo[2,1-a]isoindole]
psychostimulant test result relative to 2-(2-benzoylphenyl)-2-imidazoline (mice [1]): qualitatively similar to 2-(2-benzoylphenyl)-2-imidazoline

OC1(c2ccccc2)c2ccccc2C2=NCCCCN21 (centres unmarked) [Example 21, 2,3,4,5-tetrahydro-7-hydroxy-7-phenyl-7H-diazepino-[2,1-a]isoindole]
minimal effective dose [4, 6]: 7.5 mg/kg | minimal effective dose [5]: 25 mg/kg

CC(N)Cc1ccccc1 (centres unmarked) [amphetamine, reference compound]
minimal effective dose [4, 7]: 1 mg/kg

CN(C)CCCN1c2ccccc2CCc2ccccc21 [imipramine, reference compound]
minimal effective dose [4, 7]: 10 mg/kg
